System: normal human dermal fibroblasts (NHDF)
Assay: type I procollagen ELISA assay on culture medium of fibroblasts after 72 hours incubation
Format: cell-based
Settings: for Procollagen 1 / %/blank: NHDF, 72 hours; for Procollagen 1: DMEM containing 10% FCS, ELISA on culture medium; for %/blank: procollagen 1 relative to blank, DMEM 10% FCS
Protocol: The efficacy of a combination in accordance with the invention is tested by assaying the procollagen 1. To do this, a composition in accordance with the invention is placed in contact with normal human dermal fibroblasts and the whole is left to incubate for 72 hours before assaying.
The C-glycoside derivative used is C-β-D-xylopyranoside-2-hydroxypropane sold under the name Mexoryl® from Chimex. It is in the form of a solution containing 30% by weight of active material in a 60/40 water/1,2-propanediol mixture.
• Normal human dermal fibroblasts (NHDF) (R8PF2), obtained from a mammary plasty • Type: pool PF2, used at the 8th passage • Culture: 37° C., 5% CO2 • Test culture medium: DMEM (Invitrogen 21969035) • L-glutamine 2 mM (Invitrogen 25030024) • Penicillin 50 IU/ml streptomycin 50 μg/ml (Invitrogen 15070063) • 10% Foetal calf serum (v/v, Invitrogen 10270098).
The normal human dermal fibroblasts (R8PF2) are inoculated in whole DMEM medium and preincubated for 24 hours at 37° C. and 5% CO2. At 80% confluence, the culture medium is replaced with DMEM test medium containing 10% FCS with or without (blank) the products or mixtures to be tested or the reference (TGF-β). The cells are then incubated at 37° C. for 72 hours. Each experimental condition was performed in triplicate.
After incubation, the culture media are harvested and the type I procollagen assay is performed on a sample of medium using a specific ELISA assay kit and according to the supplier's instructions (Procollagen Type I C-Peptide EIA Kit, Bio-Whittaker MK101). An MTT viability test is performed on the cell lawns.

Row | Compound | Procollagen 1 (0.01 mg/ml) | %/blank (0.01 mg/ml) | synthesis of procollagen 1 by the fibroblasts (in words) (tested at 0.01 mg/ml, culturing for 72 hours in DMEM medium containing 10% FCS) | Procollagen 1 (1 mM) | %/blank (1 mM) | amount of procollagen 1 synthesized by the fibroblasts (in words) (tested at 1 mm, culturing for 72 hours in DMEM medium containing 10% FCS)
1 | O=C1O[C@H]([C@@H](O)CO)C(O)=C1O [Ascorbic acid, ascorbic acid] | 17052 ng/mL | 887% | significantly increases |  |  | 
2 | CC(O)C[C@@H]1OC[C@@H](O)[C@H](O)[C@H]1O (stereo partly drawn) [C-Glycoside derivative, C-β-D-xylopyranoside-2-hydroxypropane] |  |  |  | 1838 ng/mL | 96% | does not significantly modify

Reference: patent US20090274638A1, “COSMETIC USE OF A C-GLYCOSIDE DERIVATIVE IN COMBINATION WITH ASCORBIC ACID” (L'OREAL, priority 2006, published 2009)
